Assay results: US20230085307A1, “PYRIDAZINONE COMPOUND AND HERBICIDE” (NISSAN CHEMICAL CORPORATION, priority 2019, published 2023)

Legend:
late watergrass [1] = assay: Test Example 1: herbicidal activity, application before weed generation under submerged conditions (Table 16, symbol A); type: in vivo, late watergrass (Echinochloa oryzicola); details: 320 g/ha applied herbicide
In short: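 Emulsion formulation, water-diluted to set dose, was put onto the flooded surface (4 cm depth, alluvial soil) the same day weeds were sown and 2.5-leaf rice transplanted. After 3 weeks at 25-30 °C under glass, each species was rated 0 (≤5% kill) to 5 (≥90% kill).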

late watergrass [2] = assay: Test Example 2: herbicidal activity, application during weed generation under submerged conditions (Table 17, symbol A); type: in vivo, late watergrass (Echinochloa oryzicola); details: AAH 320 g/ha; application during weed generation, submerged conditions
In short: (§1)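 In this pot test, flooded alluvial soil (water depth 4 cm) holds all three species sown as a mixture. Once seedlings have one to two leaves, the compound's emulsion, thinned with water to the intended dose, is poured on the water; grading follows after three weeks on the earlier criteria.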

Japanese bulrush = assay: Test Example 2: herbicidal activity, application during weed generation under submerged conditions (Table 17, symbol B); type: in vivo, Japanese bulrush (Schoenoplectus juncoides); details: AAH 320 g/ha; application during weed generation, submerged conditions
In short: as §1

barnyard grass = assay: Test Example 3: herbicidal effect by foliage application, Wagner pot (Table 18, symbol H); type: in vivo, barnyard grass (Echinochloa crus-galli); details: for herbicidal effect on H (barnyard grass), rating 0-5: 320 g/ha
In short: (§2)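 Plants were sown in alluvial soil held under 0.1–0.5 cm standing water and grown 14 days in a greenhouse at 25–30 °C. An emulsifiable formulation, water-diluted to the set dose, was then sprayed onto the foliage, and effects were scored three weeks later using previously defined criteria.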

Chinese sprangletop = assay: Test Example 3: herbicidal effect by foliage application, Wagner pot (Table 18, symbol D); type: in vivo, chinese sprangletop (Leptochloa chinensis); details: for herbicidal effect on D (Chinese sprangletop), rating 0-5: 320 g/ha
In short: as §2

southern crabgrass [3] = assay: Test Example 4: herbicidal effect by soil treatment (Table 19, symbol F); type: in vivo, southern crabgrass (Digitaria ciliaris); details: for herbicidal effect rating, F: southern crabgrass: 320 g/ha
In short: (§3)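 Herbicidal effect was rated 3 weeks after treatment, using the scoring criteria of an earlier test. The compound, formulated as an emulsion and diluted in water to a set herbicide amount, had been sprayed uniformly on soil over freshly sown seeds. Growth took place in a greenhouse at 25° C. to 30° C.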

blackgrass = assay: Test Example 4: herbicidal effect by soil treatment (Table 19, symbol J); type: in vivo, blackgrass (Alopecurus myosuroides); details: for herbicidal effect rating, J: blackgrass: 320 g/ha
In short: as §3

Italian ryegrass [4] = assay: Test Example 4: herbicidal effect by soil treatment (Table 19, symbol K); type: in vivo, Italian ryegrass (Lolium multiflorum); details: for herbicidal effect rating, K: Italian ryegrass: 320 g/ha
In short: as §3

windgrass [5] = assay: Test Example 4: herbicidal effect by soil treatment (Table 19, symbol L); type: in vivo, windgrass (Apera spica-venti); details: for herbicidal effect rating, L: windgrass: 320 g/ha
In short: as §3

velvetleaf = assay: Test Example 4: herbicidal effect by soil treatment (Table 19, symbol M); type: in vivo, velvetleaf (Abutilon theophrasti); details: for herbicidal effect rating, M: velvetleaf: 320 g/ha
In short: as §3

lambsquarters [6] = assay: Test Example 4: herbicidal effect by soil treatment (Table 19, symbol O); type: in vivo, lambsquarters (Chenopodium album); details: for herbicidal effect rating, O: lambsquarters: 320 g/ha
In short: as §3

persian speedwell [7] = assay: Test Example 4: herbicidal effect by soil treatment (Table 19, symbol R); type: in vivo, Persian speedwell (Veronica persica); details: for herbicidal effect rating, R: persian speedwell: 320 g/ha
In short: as §3

southern crabgrass [8] = assay: Test Example 5: herbicidal effect by foliage application, plastic box (Table 20, symbol F); type: in vivo, southern crabgrass (Digitaria ciliaris); details: foliage application, 320 g/ha; for effect on southern crabgrass (F): 3 weeks after application
In short: (§4)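 Foliar spray test: emulsion formulation diluted in water to a set application rate, sprayed onto 14-day-old plants raised in diluvial soil at 25° C to 30° C under glass. Both herbicidal effect and crop effect rated visually three weeks later.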

Italian ryegrass [9] = assay: Test Example 5: herbicidal effect by foliage application, plastic box (Table 20, symbol K); type: in vivo, Italian ryegrass (Lolium multiflorum); details: foliage application, 320 g/ha; for effect on Italian ryegrass (K): 3 weeks after application
In short: as §4

windgrass [10] = assay: Test Example 5: herbicidal effect by foliage application, plastic box (Table 20, symbol L); type: in vivo, windgrass (Apera spica-venti); details: foliage application, 320 g/ha; for effect on windgrass (L): 3 weeks after application
In short: as §4

lambsquarters [11] = assay: Test Example 5: herbicidal effect by foliage application, plastic box (Table 20, symbol O); type: in vivo, lambsquarters (Chenopodium album); details: foliage application, 320 g/ha; for effect on lambsquarters (O): 3 weeks after application
In short: as §4

persian speedwell [12] = assay: Test Example 5: herbicidal effect by foliage application, plastic box (Table 20, symbol R); type: in vivo, Persian speedwell (Veronica persica); details: foliage application, 320 g/ha; for effect on persian speedwell (R): 3 weeks after application
In short: as §4

[13] = amount of applied herbicide 320 g/ha
[14] = evaluated three weeks after application

`CCCC(=O)Oc1c(C)nn(C)c(=O)c1-c1c(-c2ccc(OC)cc2)sc2ccc(F)cc12` [2-027] was tested, and the “Herbicidal effect on A: late watergrass (grade 0-5)” value (“Herbicidal effect … (grade 0-5)” below) (late watergrass [1]) was 4 (Herbicidal rate of 70% or more and less than 90%), the “herbicidal effect rating, A: late watergrass” value (late watergrass [2]) was 3 (Herbicidal rate of 40% or more and less than 70%) and the “herbicidal effect rating, B: Japanese bulrush” value (shortened to “herbicidal effect rating, B”) (Japanese bulrush) was 4 (Herbicidal rate of 70% or more and less than 90%). For the same molecule, the “herbicidal effect on H (barnyard grass), rating 0-5” value (barnyard grass) was 5 (Herbicidal rate of 90% or more (almost completely withered)), the “herbicidal effect on D (Chinese sprangletop), rating 0-5” value (Chinese sprangletop) was 4 (Herbicidal rate of 70% or more and less than 90%) and the “herbicidal effect rating, F: southern crabgrass” value (southern crabgrass [3]) was 3 (Herbicidal rate of 40% or more and less than 70%). For the same molecule, the “herbicidal effect rating, J: blackgrass” value (blackgrass) was 0 (Herbicidal rate of 5% or less (almost no effect)), the “herbicidal effect rating, K: Italian ryegrass” value (Italian ryegrass [4]) was 4 (Herbicidal rate of 70% or more and less than 90%) and the “herbicidal effect rating, L: windgrass” value (windgrass [5]) was 0 (Herbicidal rate of 5% or less (almost no effect)). For the same molecule, the “herbicidal effect rating, M: velvetleaf” value (velvetleaf) was 3 (Herbicidal rate of 40% or more and less than 70%), the “herbicidal effect rating, O: lambsquarters” value (lambsquarters [6]) was 5 (Herbicidal rate of 90% or more (almost completely withered)) and the “herbicidal effect rating, R: persian speedwell” value (persian speedwell [7]) was 5 (Herbicidal rate of 90% or more (almost completely withered)). The “effect on southern crabgrass (F)” value (southern crabgrass [8]) was 4 (Herbicidal rate of 70% or more and less than 90%), the “effect on Italian ryegrass (K)” value (Italian ryegrass [9]) was 5 (Herbicidal rate of 90% or more (almost completely withered)) and the “effect on windgrass (L)” value (windgrass [10]) was 0 (Herbicidal rate of 5% or less (almost no effect)). For the same molecule, the “effect on lambsquarters (O)” value (lambsquarters [11]) was 5 (Herbicidal rate of 90% or more (almost completely withered)) and the “effect on persian speedwell (R)” value (persian speedwell [12]) was 5 (Herbicidal rate of 90% or more (almost completely withered)).
`Cc1nn(C)c(=O)c(-c2c(-c3cccc(OC(C)C)c3)sc3ccc(F)cc23)c1O` [2-215] was tested, and the “Herbicidal effect … (grade 0-5)” value (late watergrass [1]) was 3 (Herbicidal rate of 40% or more and less than 70%), the “herbicidal effect rating, A: late watergrass” value (late watergrass [2]) was 2 (Herbicidal rate of 20% or more and less than 40%) and the “herbicidal effect rating, B” value (Japanese bulrush) was 0 (Herbicidal rate of 5% or less (almost no effect)). The “herbicidal effect on H: barnyard grass” value (barnyard grass; [13]) was 5 (Herbicidal rate of 90% or more (almost completely withered)), the “herbicidal effect on D: Chinese sprangletop” value (Chinese sprangletop; [13]) was 5 (Herbicidal rate of 90% or more (almost completely withered)) and the “F: southern crabgrass, herbicidal effect rating” value (southern crabgrass [3]; [13]) was 5 (Herbicidal rate of 90% or more (almost completely withered)). For the same molecule, the “J: blackgrass, herbicidal effect rating” value (blackgrass; [13]) was 1 (Herbicidal rate of 5% or more and less than 20%), the “K: Italian ryegrass, herbicidal effect rating” value (Italian ryegrass [4]; [13]) was 3 (Herbicidal rate of 40% or more and less than 70%) and the “L: windgrass, herbicidal effect rating” value (windgrass [5]; [13]) was 0 (Herbicidal rate of 5% or less (almost no effect)). The “M: velvetleaf, herbicidal effect rating” value (velvetleaf; [13]) was 2 (Herbicidal rate of 20% or more and less than 40%), the “O: lambsquarters, herbicidal effect rating” value (lambsquarters [6]; [13]) was 3 (Herbicidal rate of 40% or more and less than 70%) and the “R: persian speedwell, herbicidal effect rating” value (persian speedwell [7]; [13]) was 4 (Herbicidal rate of 70% or more and less than 90%). For the same molecule, the “herbicidal effect on F: southern crabgrass (criteria 0-5)” value (southern crabgrass [8]; [14]) was 5 (Herbicidal rate of 90% or more (almost completely withered)), the “herbicidal effect on K: Italian ryegrass (criteria 0-5)” value (Italian ryegrass [9]; [14]) was 5 (Herbicidal rate of 90% or more (almost completely withered)) and the “herbicidal effect on L: windgrass (criteria 0-5)” value (windgrass [10]; [14]) was 3 (Herbicidal rate of 40% or more and less than 70%). The “herbicidal effect on O: lambsquarters (criteria 0-5)” value (lambsquarters [11]; [14]) was 3 (Herbicidal rate of 40% or more and less than 70%) and the “herbicidal effect on R: persian speedwell (criteria 0-5)” value (persian speedwell [12]; [14]) was 5 (Herbicidal rate of 90% or more (almost completely withered)).
`COCc1ccc(-c2sc3ccc(F)cc3c2-c2c(O)c(C)nn(C)c2=O)cc1` [2-022] was tested, and the “Herbicidal effect … (grade 0-5)” value (late watergrass [1]) was 2 (Herbicidal rate of 20% or more and less than 40%), the “herbicidal effect rating, A: late watergrass” value (late watergrass [2]) was 2 (Herbicidal rate of 20% or more and less than 40%) and the “herbicidal effect rating, B” value (Japanese bulrush) was 2 (Herbicidal rate of 20% or more and less than 40%). For the same molecule, the “herbicidal effect on H (barnyard grass), rating 0-5” value (barnyard grass) was 5 (Herbicidal rate of 90% or more (almost completely withered)), the “herbicidal effect on D (Chinese sprangletop), rating 0-5” value (Chinese sprangletop) was 4 (Herbicidal rate of 70% or more and less than 90%) and the “herbicidal effect rating, F: southern crabgrass” value (southern crabgrass [3]) was 3 (Herbicidal rate of 40% or more and less than 70%). For the same molecule, the “herbicidal effect rating, J: blackgrass” value (blackgrass) was 4 (Herbicidal rate of 70% or more and less than 90%), the “herbicidal effect rating, K: Italian ryegrass” value (Italian ryegrass [4]) was 5 (Herbicidal rate of 90% or more (almost completely withered)) and the “herbicidal effect rating, L: windgrass” value (windgrass [5]) was 5 (Herbicidal rate of 90% or more (almost completely withered)). The “herbicidal effect rating, M: velvetleaf” value (velvetleaf) was 4 (Herbicidal rate of 70% or more and less than 90%), the “herbicidal effect rating, O: lambsquarters” value (lambsquarters [6]) was 4 (Herbicidal rate of 70% or more and less than 90%) and the “herbicidal effect rating, R: persian speedwell” value (persian speedwell [7]) was 5 (Herbicidal rate of 90% or more (almost completely withered)). The “effect on southern crabgrass (F)” value (southern crabgrass [8]) was 5 (Herbicidal rate of 90% or more (almost completely withered)), the “effect on Italian ryegrass (K)” value (Italian ryegrass [9]) was 5 (Herbicidal rate of 90% or more (almost completely withered)) and the “effect on windgrass (L)” value (windgrass [10]) was 4 (Herbicidal rate of 70% or more and less than 90%). The “effect on lambsquarters (O)” value (lambsquarters [11]) was 4 (Herbicidal rate of 70% or more and less than 90%) and the “effect on persian speedwell (R)” value (persian speedwell [12]) was 5 (Herbicidal rate of 90% or more (almost completely withered)).
